Test results: ChEMBL document CHEMBL5038679, “Fluoroalkylation of Dextromethorphan Improves CNS Exposure and Metabolic Stability” (ACS Med Chem Lett, 2022)
pIC50, pKi: −log10 of the molar value. Converted amounts (≈) assume the structure as drawn.

Key:
[1] = Aqueous solubility of compound in universal buffer at pH 3 at 100 uM incubated for 1.5 hrs under shaking condition by LC-MS/MS analysis; format: physicochemical
[2] = target: Sigma intracellular receptor 2 (Homo sapiens, UniProt Q5BJF2); assay: Displacement of […] from sigma-2 receptor (unknown origin) expressed in HEK cell membrane incubated for 2 hrs by liquid scintillation counter analysis
Sigma intracellular receptor 2, sequence (Q5BJF2 whole entry): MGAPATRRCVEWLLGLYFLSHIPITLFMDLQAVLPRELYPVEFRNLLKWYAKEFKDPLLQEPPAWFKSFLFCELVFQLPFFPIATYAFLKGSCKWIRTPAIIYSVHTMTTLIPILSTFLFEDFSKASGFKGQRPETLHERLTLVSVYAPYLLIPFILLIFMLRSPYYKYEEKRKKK

[3] = AUC in Sprague-Dawley rat plasma at 2.5 mg/kg, po measured after 24 hrs by LC-MS/MS analysis; format: ADME, organism-based; set-up: route oral, time 24 hrs, dose 2.5 mg/kg
in vitro [4] = settings: dog, MDCK-MDR1
Description: Apparent permeability in dog MDCK-MDR1 cells from apical to basal side measured after 30 to 120 mins by LC-MS analysis

[5] = Half life in Sprague-Dawley rat plasma at 2.5 mg/kg, po measured after 24 hrs by LC-MS/MS analysis; format: ADME, organism-based
hERG (KCNH2) = hERG (KCNH2) (Homo sapiens, UniProt Q12809); assay: Inhibition of human ERG at 10 uM measured after 15 mins by plate reader method relative to control; format: toxicity
hERG (KCNH2), sequence (Q12809 whole entry): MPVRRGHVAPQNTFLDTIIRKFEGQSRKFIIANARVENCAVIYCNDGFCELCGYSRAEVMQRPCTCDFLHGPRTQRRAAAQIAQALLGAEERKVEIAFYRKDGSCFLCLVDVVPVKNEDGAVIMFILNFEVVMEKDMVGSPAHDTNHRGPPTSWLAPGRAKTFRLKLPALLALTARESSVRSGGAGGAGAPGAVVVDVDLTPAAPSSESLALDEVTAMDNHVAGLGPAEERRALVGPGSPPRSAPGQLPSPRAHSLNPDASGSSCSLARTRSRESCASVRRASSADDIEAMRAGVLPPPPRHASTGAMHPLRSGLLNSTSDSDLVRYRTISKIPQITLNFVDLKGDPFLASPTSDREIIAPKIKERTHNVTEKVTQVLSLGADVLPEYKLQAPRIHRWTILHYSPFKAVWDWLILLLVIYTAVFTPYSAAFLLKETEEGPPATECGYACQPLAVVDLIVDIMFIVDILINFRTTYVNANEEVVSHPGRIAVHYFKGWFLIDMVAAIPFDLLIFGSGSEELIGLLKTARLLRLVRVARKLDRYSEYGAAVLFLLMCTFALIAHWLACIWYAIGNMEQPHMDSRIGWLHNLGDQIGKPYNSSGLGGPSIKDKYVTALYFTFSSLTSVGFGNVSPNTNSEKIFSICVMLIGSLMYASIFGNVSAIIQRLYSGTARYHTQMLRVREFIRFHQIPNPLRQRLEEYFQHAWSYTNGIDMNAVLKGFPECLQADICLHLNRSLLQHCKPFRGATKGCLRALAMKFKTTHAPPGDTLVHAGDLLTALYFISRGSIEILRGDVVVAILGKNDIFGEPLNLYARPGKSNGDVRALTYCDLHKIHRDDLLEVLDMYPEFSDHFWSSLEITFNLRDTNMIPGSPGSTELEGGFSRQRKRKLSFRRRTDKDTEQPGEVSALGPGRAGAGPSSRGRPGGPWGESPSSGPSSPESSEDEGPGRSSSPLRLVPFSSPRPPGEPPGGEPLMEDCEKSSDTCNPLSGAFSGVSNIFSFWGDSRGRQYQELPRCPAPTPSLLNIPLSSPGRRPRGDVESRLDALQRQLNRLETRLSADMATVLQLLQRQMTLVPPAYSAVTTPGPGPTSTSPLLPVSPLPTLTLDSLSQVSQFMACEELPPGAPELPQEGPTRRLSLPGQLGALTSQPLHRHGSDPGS

in vitro [6] = settings: dog, MDCK-MDR1; remark: listed apart in the source
Description: Apparent permeability in dog MDCK-MDR1 cells from basal to apical side measured after 30 to 120 mins by LC-MS analysis

[7] = Cmax in Sprague-Dawley rat plasma at 2.5 mg/kg, po measured after 24 hrs by LC-MS/MS analysis; format: ADME, organism-based; set-up: route oral, dose 2.5 mg/kg, time 24 hrs
[8] = target: T1, Sodium-dependent noradrenaline transporter (Homo sapiens, UniProt P23975); assay: Displacement of […] from NET (unknown origin) expressed in HEK cell membrane incubated for 2 hrs by liquid scintillation counter analysis
T1 sequence (P23975 whole entry): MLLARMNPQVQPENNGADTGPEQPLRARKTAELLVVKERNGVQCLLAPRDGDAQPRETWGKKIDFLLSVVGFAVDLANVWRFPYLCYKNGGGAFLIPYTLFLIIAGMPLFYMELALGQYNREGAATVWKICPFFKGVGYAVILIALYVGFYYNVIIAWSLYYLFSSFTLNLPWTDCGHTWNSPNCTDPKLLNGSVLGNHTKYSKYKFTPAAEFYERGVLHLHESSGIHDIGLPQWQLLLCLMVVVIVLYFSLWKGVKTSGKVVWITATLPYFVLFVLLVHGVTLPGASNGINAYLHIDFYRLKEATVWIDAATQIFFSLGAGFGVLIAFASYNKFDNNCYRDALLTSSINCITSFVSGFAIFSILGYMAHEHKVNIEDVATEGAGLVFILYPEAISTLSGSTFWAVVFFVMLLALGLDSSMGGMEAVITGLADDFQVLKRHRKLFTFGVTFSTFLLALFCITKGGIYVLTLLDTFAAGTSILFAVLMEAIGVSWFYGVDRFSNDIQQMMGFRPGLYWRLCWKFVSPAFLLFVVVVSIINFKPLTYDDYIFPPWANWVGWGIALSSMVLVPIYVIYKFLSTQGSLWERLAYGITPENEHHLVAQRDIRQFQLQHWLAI

[9] = Unbound brain-to-plasma concentration ratio in Sprague-Dawley rat; format: ADME, cell-free; settings: read-out: K(p,uu,brain)
[10] = target: T2, Sodium-dependent serotonin transporter (Homo sapiens, UniProt P31645); format: cell-based, HEK293
T2 sequence (P31645 whole entry): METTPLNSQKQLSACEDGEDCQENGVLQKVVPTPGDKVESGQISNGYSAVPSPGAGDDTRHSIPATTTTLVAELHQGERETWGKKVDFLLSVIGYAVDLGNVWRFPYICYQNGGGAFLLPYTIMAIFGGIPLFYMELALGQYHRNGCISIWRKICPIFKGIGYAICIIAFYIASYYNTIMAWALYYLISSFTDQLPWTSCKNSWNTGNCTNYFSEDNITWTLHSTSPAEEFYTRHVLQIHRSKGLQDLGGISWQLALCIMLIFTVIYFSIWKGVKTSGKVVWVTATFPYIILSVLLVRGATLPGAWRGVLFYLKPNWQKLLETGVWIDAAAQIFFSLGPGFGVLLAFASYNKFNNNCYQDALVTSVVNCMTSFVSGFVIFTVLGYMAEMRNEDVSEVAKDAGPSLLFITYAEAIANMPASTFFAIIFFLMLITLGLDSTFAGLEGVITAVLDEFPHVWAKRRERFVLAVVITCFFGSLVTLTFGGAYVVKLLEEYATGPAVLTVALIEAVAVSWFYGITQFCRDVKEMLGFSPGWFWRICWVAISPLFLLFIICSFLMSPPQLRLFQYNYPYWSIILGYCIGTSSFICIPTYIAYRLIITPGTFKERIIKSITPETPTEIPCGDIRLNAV

[11] = Clearance in Sprague-Dawley rat plasma at 2.5 mg/kg, po measured after 24 hrs by LC-MS/MS analysis; format: ADME, organism-based
[12] = target: Sigma non-opioid intracellular receptor 1 (Homo sapiens, UniProt Q99720); assay: Displacement of […] from sigma-1 receptor (unknown origin) expressed in HEK cell membrane incubated for 2 hrs by liquid scintillation counter analysis
Sigma non-opioid intracellular receptor 1, sequence (Q99720 whole entry): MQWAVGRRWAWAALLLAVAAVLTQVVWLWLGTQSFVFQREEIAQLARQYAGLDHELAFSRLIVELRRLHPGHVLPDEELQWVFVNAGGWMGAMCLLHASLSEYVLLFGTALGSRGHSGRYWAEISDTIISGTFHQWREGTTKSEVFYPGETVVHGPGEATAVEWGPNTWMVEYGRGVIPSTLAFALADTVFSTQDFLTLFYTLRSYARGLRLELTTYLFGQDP

[13] = target: T2, Sodium-dependent serotonin transporter; assay: biochemical; format: cell-based, HEK
Description: Displacement of [3H]-Citalopram from SERT receptor (unknown origin) expressed in HEK cell membrane incubated for 2 hrs by liquid scintillation counter analysis

in vitro [14] = settings: human, liver microsomes
[15] = Half life in Sprague-Dawley rat brain at 2.5 mg/kg, po measured after 24 hrs by LC-MS/MS analysis; format: ADME, organism-based
[16] = Volume of distribution in Sprague-Dawley rat at 2.5 mg/kg, po measured after 24 hrs by LC-MS/MS analysis; format: ADME, organism-based; settings: in vivo
[17] = AUC in Sprague-Dawley rat brain at 2.5 mg/kg, po measured after 24 hrs by LC-MS/MS analysis; format: ADME, organism-based; set-up: route oral, time 24 hrs, dose 2.5 mg/kg
[18] = Stability in human liver microsomes assessed as half life at 10 uM measured upto 120 mins by LC-MS/MS analysis; format: ADME, Microsome
[19] = Efflux ratio of apparent permeability across basolateral to apical side over apical to basolateral side in dog MDCK-MDR1 cells measured after 30 to 120 mins by LC-MS analysis; format: ADME, cell-based, Canis lupus familiaris; settings: time 30-120 min
[20] = Cmax in Sprague-Dawley rat brain at 2.5 mg/kg, po measured after 24 hrs by LC-MS/MS analysis; format: ADME, organism-based; set-up: route oral, time 24 hrs, dose 2.5 mg/kg
[21] = target: Glutamate [NMDA] receptor; assay: Displacement of […] from NMDA receptor (unknown origin) expressed in HEK cell membrane incubated for 2 hrs by liquid scintillation counter analysis
[22] = target: T1, Sodium-dependent noradrenaline transporter; assay: Inhibition of human NET expressed in human HEK293 cells assessed as inhibition of substrate transport measured after 1 hr by flourescence based plate reader assay; format: cell-based
[23] = Aqueous solubility of compound in universal buffer at pH 7.4 at 100 uM incubated for 1.5 hrs under shaking condition by LC-MS/MS analysis; format: physicochemical
[24] = Protein binding in Sprague-Dawley rat plasma assessed as unbound fraction at 20 uM by NMR analysis; format: ADME, cell-free
[25] = Protein binding in Sprague-Dawley rat brain plasma assessed as unbound fraction at 5 uM measured after 4 hrs by LC-MS analysis; format: ADME, tissue-based

| Compound | solubility at 1.5 h, 100 µM [1] [µM] | pKi [2] | AUC at 24 h [3] [ng·h/mL] | Papp A→B (in vitro [4]) [×10⁻⁶ cm/s] | half-life [5] [h] | inhibition at 0.25 h, 10 µM (hERG (KCNH2)) [%] | Papp B→A (in vitro [6]) [×10⁻⁶ cm/s] | Cmax [7] [ng/mL] | pKi [8] | Kp uu at 20 µM [9] | CL/F [11] [mL/min/kg] | pKi [12] | CLint scaled at 2 h, 10 µM (in vitro [14]) [mL/min/kg] | half-life [15] [h] | Vd [16] [L/kg] | AUC at 24 h [17] [ng·h/mL] | half-life at 10 µM [18] [h] | Cmax [20] [ng/mL] | pKi [21] | solubility at 1.5 h, 100 µM [23] [µM] | also measured |
| --- | --- | --- | --- | --- | --- | --- | --- | --- | --- | --- | --- | --- | --- | --- | --- | --- | --- | --- | --- | --- | --- |
| CN1CC[C@@]23CCCC[C@@H]2[C@@H]1Cc1ccc(OC(F)(F)F)cc13 | 60 (≈ 19.5 µg/mL) | 6.08 | 131 | 0.989 | 2.8 | 6.1 | 1.12 | 12 | < 5.00 | 3.3 | 318 | 6.12 | 5.66 | 3.18 | 77 | 9460 | 3.67 | 756 | < 5.00 | > 100 | pIC50 [10]: 7.51; pKi [13]: 7.32; efflux ratio [19]: 1.13; pIC50 [22]: < 5.00 |
| CN1CC[C@@]23CCCC[C@@H]2[C@@H]1Cc1ccc(C(F)(F)F)cc13 | 77 (≈ 23.8 µg/mL) | 6.05 |  | 1.22 |  | 5.1 | 0.915 |  | < 5.00 |  |  | 6.09 | 6.48 |  |  |  | 3.2 |  | < 5.00 | > 100 | pIC50 [10]: 7.22; pKi [13]: 6.90; efflux ratio [19]: 0.75; pIC50 [22]: 5.98 |
| [2H]C([2H])([2H])N1CC[C@@]23CCCC[C@@H]2[C@@H]1Cc1ccc(C(F)F)cc13 | 70 (≈ 20.6 µg/mL) |  | 353 |  | 2.65 |  |  | 66 |  | 4.1 | 135 |  | 10.2 | 1.62 | 31 | 4060 | 2.03 | 854 |  | 94 (≈ 27.7 µg/mL) | Cp(f) [24]: 28.8%; Cp(f) [25]: 9% |
| CN1CC[C@@]23CCCC[C@@H]2[C@@H]1Cc1ccc(OC(F)F)cc13 | 76 (≈ 23.4 µg/mL) | 5.89 |  | 1.28 |  | 34.9 | 0.979 |  | < 5.00 |  |  | 6.25 | 4.94 |  |  |  | 4.22 |  | < 5.00 | > 100 | pIC50 [10]: 7.26; pKi [13]: 6.73; efflux ratio [19]: 0.77; pIC50 [22]: < 5.00 |
| CN1CC[C@@]23CCCC[C@@H]2[C@@H]1Cc1ccc(C(F)F)cc13 | > 100 | 6.45 | 144 | 1.35 | 3.33 | 12 | 1.1 | 27 | 7.46 | 7.8 | 288 | 6.84 | 5.13 | 2.57 | 85 | 4930 | 4.05 | 674 | < 5.00 | > 100 | pIC50 [10]: 7.62; pKi [13]: 7.29; efflux ratio [19]: 0.81; pIC50 [22]: 6.03 |
| COc1ccc2c(c1)[C@@]13CCCC[C@@H]1[C@@H](C2)N(C)CC3 | 88 (≈ 23.9 µg/mL) | 6.06 | 21.3 | 1.48 | 2 | 0.1 | 1.21 | 9.7 | < 5.00 | 27.9 | 2990 | 7.14 | 6.09 | 2.07 | 589 | 389 | 3.42 | 214 | 6.20 | 94 (≈ 25.5 µg/mL) | Cp(f) [24]: 19.3%; pIC50 [22]: < 5.00; Cp(f) [25]: 21.6% |
| [2H]C([2H])([2H])N1CC[C@@]23CCCC[C@@H]2[C@@H]1Cc1ccc(OC(F)(F)F)cc13 | 86 (≈ 28.2 µg/mL) |  | 205 |  | 2.45 |  |  | 32 |  | 1.2 | 202 |  | 7.81 | 3.03 | 43 | 5810 | 2.67 | 725 |  | 100 (≈ 32.8 µg/mL) | Cp(f) [24]: 40.2%; Cp(f) [25]: 2.1% |
